Measured values: patent US20260285850A1, “SUBSTITUTED OXAZOLIDINONES AND IMIDAZOLINONES AS HERBICIDES” (FMC CORPORATION, priority 2023, published 2026)

Key:
Format in all cases: in vivo
kochia (Bassia scoparia) [1] = assay: Test A postemergence application, visual injury rating 0-100; conditions: 10 days
Procedure, shortened: (§1)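 Directed preemergence spray onto seeded soil or postemergence spray onto 2-10 cm plants (loam plus sand); compound carried in surfactant-containing non-phytotoxic solvent. Injury rated by eye after 10 d greenhouse growth; 0 = no effect, 100 = complete control.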

[2] = tested on: ragweed (common ragweed, Ambrosia artemisiifolia); assay: as above; conditions: 10 days
Procedure, shortened: as §1

[3] = tested on: barnyardgrass (Echinochloa crus-galli); assay: as above; conditions: 10 days
Procedure, shortened: as §1

soybean (Glycine max) [4] = assay: as above; conditions: 10 days
Procedure, shortened: as §1

[5] = tested on: horseweed (Erigeron canadensis); assay: as above; conditions: 10 days
Procedure, shortened: as §1

[6] = tested on: ryegrass, Italian (italian ryegrass, Lolium multiflorum); assay: as above; conditions: 10 days
Procedure, shortened: as §1

[7] = tested on: oat, wild (wild oat, Avena fatua); assay: as above; conditions: 10 days
Procedure, shortened: as §1

[8] = tested on: green foxtail (Setaria viridis); assay: as above; conditions: 10 days
Procedure, shortened: as §1

corn (Zea mays) [9] = assay: as above; conditions: 10 days
Procedure, shortened: as §1

[10] = tested on: palmer (palmer amaranth, palmer pigweed, Amaranthus palmeri); assay: as above; conditions: 10 days
Procedure, shortened: as §1

[11] = tested on: blackgrass (Alopecurus myosuroides); assay: as above; conditions: 10 days
Procedure, shortened: as §1

[12] = tested on: wheat (Triticum aestivum); assay: as above; conditions: 10 days
Procedure, shortened: as §1

[13] = tested on: sedge, umbrella (small-flower umbrella sedge, Cyperus difformis); assay: Test B flooded paddy test, visual plant response rating 0-100; conditions: 250 g ai/ha, Flood, applied to paddy water, evaluated after 13 days
Procedure, shortened: (§2)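 Visual scores versus untreated controls were recorded 13 days after treatment of greenhouse-held plants. At the 2-leaf stage, pots were flooded 3 cm above the soil surface and compounds added straight to the water.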

[14] = tested on: ducksalad (Heteranthera limosa); assay: as above; conditions: 250 g ai/ha, Flood, applied to paddy water, evaluated after 13 days
Procedure, shortened: as §2

[15] = tested on: barnyardgrass (Echinochloa crusgalli); assay: as above; conditions: 250 g ai/ha, Flood, applied to paddy water, evaluated after 13 days
Procedure, shortened: as §2

rice (Oryza sativa) = assay: as above; conditions: 250 g ai/ha, Flood, applied to paddy water, evaluated after 13 days
Procedure, shortened: as §2

kochia (Bassia scoparia) [16] = assay: Test A preemergence soil spray, visual injury rating 0-100; conditions: 10 days, 0 = no effect, 100 = complete control
Procedure, shortened: as §1

[17] = tested on: ragweed (common ragweed, Ambrosia artemisiifolia); assay: as above; conditions: 10 days, 0 = no effect, 100 = complete control
Procedure, shortened: as §1

[18] = tested on: barnyardgrass (Echinochloa crus-galli); assay: as above; conditions: 10 days, 0 = no effect, 100 = complete control
Procedure, shortened: as §1

soybean (Glycine max) [19] = assay: as above; conditions: 10 days, 0 = no effect, 100 = complete control
Procedure, shortened: as §1

[20] = tested on: ryegrass, Italian (italian ryegrass, Lolium multiflorum); assay: as above; conditions: 10 days, 0 = no effect, 100 = complete control
Procedure, shortened: as §1

[21] = tested on: oat, wild (wild oat, Avena fatua); assay: as above; conditions: 10 days, 0 = no effect, 100 = complete control
Procedure, shortened: as §1

[22] = tested on: green foxtail (Setaria viridis); assay: as above; conditions: 10 days, 0 = no effect, 100 = complete control
Procedure, shortened: as §1

corn (Zea mays) [23] = assay: as above; conditions: 10 days, 0 = no effect, 100 = complete control
Procedure, shortened: as §1

[24] = tested on: palmer (palmer amaranth, palmer pigweed, Amaranthus palmeri); assay: as above; conditions: 10 days, 0 = no effect, 100 = complete control
Procedure, shortened: as §1

[25] = tested on: blackgrass (Alopecurus myosuroides); assay: as above; conditions: 10 days, 0 = no effect, 100 = complete control
Procedure, shortened: as §1

[26] = tested on: wheat (Triticum aestivum); assay: as above; conditions: 10 days, 0 = no effect, 100 = complete control
Procedure, shortened: as §1

[27] = 31 g ai/ha, postemergence, 0 = no effect, 100 = complete control
[28] = Postemergence, 125 g ai/ha, 0 is no effect, 100 is complete control

CC(C)OC(=O)C1CCC(NC(=O)C2(C)CN(c3cc(F)cc(F)c3)C(=O)O2)C1 (centres unmarked) [Compound 12]
Kochia plant response rating (0-100) (kochia (Bassia scoparia) [1]; [27]): 20 | Kochia plant response rating (0 to 100 scale) (kochia (Bassia scoparia) [1]; [28]): 80 | Ragweed plant response rating (0-100) [2, 27]: 0 | Ragweed plant response rating (0 to 100 scale) [2, 28]: 0 | Barnyardgrass plant response rating (0-100) [3, 27]: 10 | Barnyardgrass plant response rating (0 to 100 scale) [3, 28]: 100 | Soybean plant response rating (0-100) (soybean (Glycine max) [4]; [27]): 30 | Soybean plant response rating (0 to 100 scale) (soybean (Glycine max) [4]; [28]): 50 | Horseweed plant response rating (0-100) [5, 27]: 0 | Horseweed plant response rating (0 to 100 scale) [5, 28]: 10 | Ryegrass, Italian plant response rating (0-100) [6, 27]: 60 | Ryegrass, Italian plant response rating (0 to 100 scale) [6, 28]: 80 | Oat, Wild plant response rating (0-100) [7, 27]: 80 | Oat, Wild plant response rating (0 to 100 scale) [7, 28]: 90 | Foxtail, Green plant response rating (0-100) [8, 27]: 20 | Foxtail, Green plant response rating (0 to 100 scale) [8, 28]: 60 | Corn plant response rating (0-100) (corn (Zea mays) [9]; [27]): 20 | Corn plant response rating (0 to 100 scale) (corn (Zea mays) [9]; [28]): 50 | Amaranth, Palmer plant response rating (0-100) [10, 27]: 0 | Amaranth, Palmer / Pigweed, Palmer plant response rating (0 to 100 scale) [10, 28]: 20 | Blackgrass plant response rating (0-100) [11, 27]: 50 | Blackgrass plant response rating (0 to 100 scale) [11, 28]: 80 | Wheat plant response rating (0-100) [12, 27]: 50 | Wheat plant response rating (0 to 100 scale) [12, 28]: 60 | Plant response rating, Sedge, Umbrella (0 to 100 scale, 0 is no effect and 100 is complete control) [13]: 0 | Plant response rating, Ducksalad (0 to 100 scale, 0 is no effect and 100 is complete control) [14]: 0 | Plant response rating, Barnyardgrass (0 to 100 scale, 0 is no effect and 100 is complete control) [15]: 0 | Plant response rating, Rice (0 to 100 scale, 0 is no effect and 100 is complete control) (rice (Oryza sativa)): 0 | Kochia plant response rating (0-100) (kochia (Bassia scoparia) [16]; 31 g ai/ha): 20 | Kochia plant response rating (0 to 100 scale) (kochia (Bassia scoparia) [16]; 125 g ai/ha): 70 | Ragweed plant response rating (0-100) ([17]; 31 g ai/ha): 0 | Ragweed plant response rating (0 to 100 scale) ([17]; 125 g ai/ha): 0 | Barnyardgrass plant response rating (0-100) ([18]; 31 g ai/ha): 0 | Barnyardgrass plant response rating (0 to 100 scale) ([18]; 125 g ai/ha): 90 | Soybean plant response rating (0-100) (soybean (Glycine max) [19]; 31 g ai/ha): 10 | Soybean plant response rating (0 to 100 scale) (soybean (Glycine max) [19]; 125 g ai/ha): 0 | Ryegrass, Italian plant response rating (0-100) ([20]; 31 g ai/ha): 0 | Ryegrass, Italian plant response rating (0 to 100 scale) ([20]; 125 g ai/ha): 90 | Oat, Wild plant response rating (0-100) ([21]; 31 g ai/ha): 0 | Oat, Wild plant response rating (0 to 100 scale) ([21]; 125 g ai/ha): 90 | Foxtail, Green plant response rating (0-100) ([22]; 31 g ai/ha): 0 | Foxtail, Green plant response rating (0 to 100 scale) ([22]; 125 g ai/ha): 50 | Corn plant response rating (0-100) (corn (Zea mays) [23]; 31 g ai/ha): 0 | Corn plant response rating (0 to 100 scale) (corn (Zea mays) [23]; 125 g ai/ha): 50 | Amaranth, Palmer plant response rating (0-100) ([24]; 31 g ai/ha): 0 | Amaranth, Palmer plant response rating (0 to 100 scale) ([24]; 125 g ai/ha): 0 | Blackgrass plant response rating (0-100) ([25]; 31 g ai/ha): 20 | Blackgrass plant response rating (0 to 100 scale) ([25]; 125 g ai/ha): 80 | Wheat plant response rating (0-100) ([26]; 31 g ai/ha): 50 | Wheat plant response rating (0 to 100 scale) ([26]; 125 g ai/ha): 90
